The target in experiment [1] is His-tagged KRAS G12D protein (Homo sapiens (Human), UniProt P01116, G12D). The experiment can be described thus: KRAS G12D TR-FRET Assay. It is filed as binding. As to the method:
Compounds of interest were prepared in a dose-response titration in DMSO, and 80 nL were added via Labcyte Echo to each well of a 384-well plate (Perkin Elmer 6008280). The His-tagged KRAS G12D protein (Amgen) was diluted to 20 nM in Assay Buffer (20 mM HEPES, pH 7.4, 10 mM MgCl2, 50 mM NaCl, 0.1% BSA, 0.01% Tween-20, 10 μM GDP) and 2 μL was added to the appropriate wells of the 384-well plate. The plate was incubated for 30 minutes at room temperature. Biotinylated KRPep-2d substrate (Amgen) was diluted to 20 nM in Assay Buffer and 2 μL was added to all wells and incubated for 1 hour at room temperature. Detection Reagent (0.4 nM LANCE Eu-W1024 Anti-6×His (Perkin Elmer AD0401), 5 nM streptavidin-d2 (Cisbio 610SADLA)) was prepared in Assay Buffer, then 4 μL was added to the plate and incubated for 1 hour at room temperature. Plates were read using PerkinElmer EnVision (ex: 320 nm, em1: 665 nm, em2: 615 nm) and em1/em2 data was used to generate curve fits using a 4-parameter logistic model to calculate IC50 values.
In general terms: TR-FRET usually uses a lanthanide donor and a delayed reading to cut background.

Experiment [2] concerns the target GDP-bound KRAS protein (aa 1-169), containing both G12D and C118A amino acid substitutions (Homo sapiens (Human), UniProt P01116, C118A/G12D). Briefly: KRAS G12D Coupled Nucleotide Exchange Assay. It is filed as biochemical. As to the method:
KRAS G12D Coupled Nucleotide Exchange Assay
Following compound pre-incubation, purified SOS protein (aa 564-1049) and GTP (Roche 10106399001) were added to the assay wells and incubated for an additional 30 min. To determine the extent of inhibition of SOS-mediated nucleotide exchange, purified GST-tagged cRAF (aa 1-149), nickel chelate AlphaLISA acceptor beads (PerkinElmer AL108R), and AlphaScreen glutathione donor beads (PerkinElmer 6765302) were added to the assay wells and incubated for 10 minutes. The assay plates were then read on a PerkinElmer EnVision Multilabel Reader, using AlphaScreen® technology, and data were analyzed using a 4-parameter logistic model to calculate IC50 values.

Setting [3] is: read-out: KRAS G12D Binding IC50.
Setting [4] is: read-out: KRAS G12D Coupled Exchange IC50.

Read-outs that look alike come from different tables or passages of the source.

His-tagged KRAS G12D protein, sequence (P01116 other isoform, or with tags, fused parts or gaps G12D): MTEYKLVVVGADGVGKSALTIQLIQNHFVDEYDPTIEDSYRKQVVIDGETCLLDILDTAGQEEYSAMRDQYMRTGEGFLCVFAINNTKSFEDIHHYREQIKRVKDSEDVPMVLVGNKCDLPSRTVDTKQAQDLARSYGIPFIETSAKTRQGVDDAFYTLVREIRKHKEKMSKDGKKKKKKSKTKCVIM
GDP-bound KRAS protein (aa 1-169), containing both G12D and C118A amino acid substitutions, sequence (P01116 other isoform, or with tags, fused parts or gaps G12D/C118A): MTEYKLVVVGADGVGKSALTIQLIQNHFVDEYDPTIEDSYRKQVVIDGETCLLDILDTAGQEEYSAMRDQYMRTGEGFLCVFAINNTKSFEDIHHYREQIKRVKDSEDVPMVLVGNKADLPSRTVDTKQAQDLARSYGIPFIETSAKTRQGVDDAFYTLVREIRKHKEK

Turning to `Cc1cc2[nH]ncc2c2c1CCCCC(=O)N1CC3CCN(CC3C1)c1nc(OC[C@@]34CCCN3C[C@H](F)C4)nc3c(F)c-2ncc13` (mixture of isomers) [Example 57], the IC50 in experiment [1] (setting [3]) is 221 nM; in experiment [2] (setting [4]) it was 194 nM.
Taken in the same sequence, the figures for `CN1C(=O)CCCCc2c(Cl)cc3[nH]ncc3c2-c2ncc3c(nc(OC[C@@]45CCCN4C[C@H](F)C5)nc3c2F)N2CCOCC1C2` (mixture of isomers) [Example 64] were 98 nM and 81 nM.
Taken in the same sequence, the figures for `Cc1cc2[nH]ncc2c2c1CCCCC(=O)OC1CN(CC3(CC3)C1)c1nc(OC[C@@]34CCCN3C[C@H](F)C4)nc3c(F)c-2ncc13` (mixture of isomers) [Example 80, (17′R)-30′-fluoro-24′-(((2R,7aS)-2-fluorotetrahydro-1H-pyrrolo[1,2-a]pyrrol-7a(5H)-yl)methoxy)-9′-methyl-16′-oxa-5′,6′,21′,23′,25′,29′-hexaazaspiro[cyclopropane-1,19′-hexacyclo[24.3.1.1~17,21~.0~2,10~.0~3,7~.0~22,27~]hentriacontane]-1′(30′),2′,4′,7′,9′,22′,24′,26′,28′-nonaen-15′-one] were 55 nM and 47 nM.
Regarding `Cc1cc2[nH]ncc2c2c1CCCCC(=O)OC1CN(CC(F)(F)C1)c1nc(OC[C@@]34CCCN3C[C@H](F)C4)nc3c(F)c-2ncc13` (mixture of isomers) [Example 81], the results for the IC50 in experiment [1] (setting [3]) and in experiment [2] (setting [4]) were 279 nM and 212 nM, respectively.
Consider `Cc1cc2[nH]ncc2c2c1CCC(=O)OCCC1CCCN(C1)c1nc(OC[C@@]34CCCN3C[C@H](F)C4)nc3c(F)c-2ncc13` (mixture of isomers) [Example 107], for which the IC50 in experiment [1] (setting [3]) stood at 70 nM; in experiment [2] (setting [4]), 42 nM.
With `[O-][S+]1CCCCc2c(Cl)cc3[nH]ncc3c2-c2ncc3c(nc(OC[C@@]45CCCN4C[C@H](F)C5)nc3c2F)N2CCC[C@H](C2)C1` (mixture of isomers) [Example 144], the IC50 in experiment [1] (setting [3]) was 146 nM; in experiment [2] (setting [4]), 79 nM.
`O[C@H]1C[C@@H]2CN(C1)c1nc(OC[C@@]34CCCN3C[C@H](F)C4)nc3c(F)c(ncc13)-c1c(c(Cl)cc3[nH]ncc13)CCCc1nc2no1` (mixture of isomers) [Example 377]: the IC50 in experiment [1] (TR-FRET, read-out: KRAS G12D Binding) came out at 5 nM; in experiment [2] (2 hours compound pre-incubation, read-out: KRAS G12D Coupled Exchange) it was 2 nM.
As to `Cc1cc2[nH]ncc2c2c1CCCCC(=O)OC1CC[C@@H]3CC[C@H]1N3c1nc(OC[C@@]34CCCN3C[C@H](F)C4)nc3c(F)c-2ncc13` (racemic) [Example 86], the IC50 in experiment [1] (setting [3]) was determined as 61 nM; in experiment [2] (setting [4]) it was 57 nM.
`[2H]C([2H])([2H])[C@]12COCCN(C1)c1nc(OC[C@@]34CCCN3C[C@H](F)C4)nc3c(F)c(ncc13)-c1c(c(C)cc3[nH]ncc13)CCCOC(=O)O2` [Example 351, (26R)-32-fluoro-4-(((2R,7aS)-2-fluorotetrahydro-1H-pyrrolo[1,2-a]pyrrol-7a(5H)-yl)methoxy)-18-methyl-26-(~2~H_3_)methyl-23,25,28-trioxa-1,3,5,9,14,15-hexaazahexacyclo[24.4.1.1~6,10~.0~2,7~.0~11,19~.0~12,16~]dotriaconta-2,4,6,8,10(32),11,13,16,18-nonaen-24-one]: the IC50 in experiment [2] (setting [4]) came to 149 nM.
Still for that read-out and setting: for `[2H]C([2H])([2H])[C@]12COCCN(C1)c1nc(OC[C@@]34CCCN3C[C@H](F)C4)nc3c(F)c(ncc13)-c1c(c(Cl)cc3[nH]ncc13)CCCOC(=O)O2` [Example 354, (26R)-18-chloro-32-fluoro-4-(((2R,7aS)-2-fluorotetrahydro-1H-pyrrolo[1,2-a]pyrrol-7a(5H)-yl)methoxy)-26-(~2~H_3_)methyl-23,25,28-trioxa-1,3,5,9,14,15-hexaazahexacyclo[24.4.1.1~6,10~.0~2,7~.0~11,19~.0~12,16~]dotriaconta-2,4,6(32),7,9,11,13,16,18-nonaen-24-one] the value was 531 nM.

For the origin of these results see patent publication US20240294551A1 (AMGEN INC., priority 2022, published 2024).
